{"source": "paper PMC3033200", "about": "(Angewandte Chemie (International ed. in English), 2010)", "key": {"ΔF508-CFTR [1]": {"system": "ΔF508-CFTR", "experiment": "Ussing chamber chloride efflux", "format": "cell-based, human"}, "CAL PDZ domain (CALP)": {"system": "CAL PDZ domain (CALP)", "experiment": "NMR HSQC binding-site mapping on 15N-CALP", "settings": "15N-CALP HSQC"}, "ΔF508-CFTR [2]": {"system": "ΔF508-CFTR", "format": "cell-based, human", "settings": "surface biotinylation and Western blotting; p = 0.35, n = 14"}, "CFBE-ΔF cells": {"system": "CFBE-ΔF cells", "experiment": "peptide uptake by fluorescence microscopy", "settings": "BioPORTER delivery, fluorescence microscopy (Figure S1)"}, "ΔF508-CFTR [3]": {"system": "ΔF508-CFTR", "experiment": "Ussing chamber chloride efflux, residual ΔISC after CHX", "format": "cell-based, human"}}, "note": "Entries after “also recorded” stand apart in the source; their conditions may differ.", "data": [{"substance": "AALKEETEEEVQDTRL [CFTR16]", "values": [{"measurement": "increase in ΔISC", "setting": "ΔF508-CFTR [1]; absence of CHX, relative to the scrambled control (Figure 5)", "result": "did not significantly increase"}]}, {"substance": "ANSRWPTSII [iCAL36]", "values": [{"measurement": "mode of binding / binding site on CALP", "setting": "CAL PDZ domain (CALP); 800 μM iCAL36, normalized chemical shift perturbation Δ ≥ 0.15", "result": "competitive inhibitor"}, {"measurement": "additional contacts compared to CFTR8", "setting": "CAL PDZ domain (CALP); compared to the CFTR8 octamer, listed as iCAL36_10", "result": "extends beyond that of CFTR8; also recorded: makes additional contacts at the distal end of the peptide-binding groove"}, {"measurement": "effect on ΔF508-CFTR biogenesis/maturation", "setting": "ΔF508-CFTR [1]; comparison of ΔISC increase in absence (26%) and presence (25%) of CHX", "result": "does not strongly affect biogenesis"}]}, {"substance": "F*-ANSRWPTSII [F*-iCAL36]", "values": [{"measurement": "increase in apical ΔF508-CFTR (significance, words)", "setting": "ΔF508-CFTR [2]", "result": "not statistically significant"}, {"measurement": "peptide uptake", "setting": "CFBE-ΔF cells", "result": "confirmed"}, {"measurement": "residual ΔISC increase vs control monolayers", "setting": "ΔF508-CFTR [3]; CHX 2 h, relative to control (F*-SCR) monolayers, p = 0.0005", "result": 25, "unit": "%"}]}, {"substance": "F*-SPTINSAIWR [F*-SCR, reference compound]", "values": [{"measurement": "peptide uptake", "setting": "CFBE-ΔF cells", "result": "confirmed"}, {"measurement": "residual ΔISC, % of baseline", "setting": "ΔF508-CFTR [3]; 2 h CHX exposure, % of 0 h starting value, n = 9", "result": 60, "unit": "%"}, {"measurement": "shift in chloride efflux (ΔISC) compared to untreated cells", "setting": "ΔF508-CFTR [1]; CFBE-ΔF polarized monolayers, 37 °C, peptide/BioPORTER (500 μM), compared to untreated cells", "result": "≤ 4", "unit": "%"}]}]}
